Test results as given in patent US4690935A, “Inhibition of tumor growth and metastasis with calcium channel blocker compounds” (Wayne State University, priority 1983, dated 1987).
“Also recorded” adds a separate entry of the source. Where two headings read alike, the source gives them in different places.

Tests used:
B16a Tumor Cells = assay: "Spontaneous" lung metastasis from an in vivo subcutaneous implant of B16a tumor cells; parameters: species or system mouse; settings: mice; for % of Control (mean number of pulmonary metastases): oral once daily, 27 days, x ± SEM, N = 10, control = 100%; for reduction of spontaneous metastasis (in words): chronic oral administration
Excerpt: B16 amelanotic melanoma (B16a) and Walker 256 L-Pam carcinosarcoma were obtained from the Division of Cancer Treatment, Animal and Human Tumor Bank, Mason Research Institute, Worcester, Mass. Tumors were passaged four times after receipt in syngeneic C57BL/6J male mice (B16a) or allogenic Sprague Dawley rats (Walker 256 L-Pam). Passaging involved subcutaneous implantations of tumor pices (diced to approximately 2×2 MM) into the right auxiliary region using a 18 gauge needle. Mice weighing approximately 20 grams (4 to 5 weeks old) were used to passage the B16a cell line and female rats were used to passage the Walker 256 L-Pam cell line. Animals were housed under identical conditions of temperature, feeding, photoperiod, etc. The transplanted tumors were allowed to grow for approximately 14 days following implantation.
The B16a tumor cells, obtained by the previously described procedure of tumor dispersion and tumor cell elutriation were used to test the antimetastatic effect of BAY e 9736.
The effect of chronic oral administration of BAY e 9736 on spontaneous lung metastasis from a primary subcutaneous B16a tumor was also determined. A 16 mg portion of BAY e 9736 was dissolved in 1 ml of PEG-400 and diluted 1:8, 1:32, 1:80, and 1:800. Syngeneic C56BL/6J mice were injected subcutaneously with 1×10^5 B16a tumor cells in 0.1 ml prepared as previously described. Starting one day post tumor injection, the mice were administered BAY e 9736 orally once a day for 27 days with 0.1 ml of the diluted BAY e 9736. The control and treated mice were housed under identical conditions of temperature, feeding and photoperiod, etc. The mice were sacrificed 28 days after the injection of tumor cells and the lungs were removed in Bouin's solution and visible bilateral metastasis counted.

[1] = test system: Walker 256 L-Pam tumor cell; assay: Walker 256 L-Pam tumor cell attachment to plastic; type: cell-based, rat; settings: 0.04 mg/ml; for effect on tumor cell adhesion to plastic wells (in words): thirty minutes preincubation; for inhibition at 40 µg/mL: Rattus norvegicus, Walker 256, 1 h, 1 h plating, read-out: % Inhibition vs control (attachment to plastic)
Experimental: Walker ^256 L-Pam tumor cells were plated at approximately 5×10^5 cells/flask. The cells were labelled with ^125 I-UDR (iodinated uridine deoxyribonucleic acid) at 0.5 microcuries/ml media (5.0 microcurie/flask). Cells were incubated for approximately 24 hours and the cell count/flask was determined to be 8.14×10^5 cell/flask. The cells from each flask were counted (gamma counter) and found to have an average of 0.24 cpm/cell.
Platelet enhanced tumor cell attachment to plastic was tested using four conditions: tumor cell alone (Condition A), tumor cells plus washed platelets (Condition B), tumor cells plus platelet poor plasma (Condition C) and tumor cells, washed platelets and platelet poor plasma (Condition D).
Walker 256 L-Pam tumor cells obtained from culture are radiolabeled with ^125 I-UDR as described previously. The radiolabeled cells are removed from T-75 flasks with trypsin (2 milliliters of 0.25% trypsin and 0.01% EDTA) in MEM. After two minutes, the flasks are washed 3X with trypsin "quench," 10% fetal calf serum in MEM, to quench and remove the trypsin in order to prevent cell lysis. The tumor cells are removed from the flasks in MEM and adjusted to 2.5×10^5 cells /milliliter. One hundred microliters of the tumor cell suspension (2.5×10^4 cells) were plated in […] tissue culture wells (Costar) and overlaid with 250 microliters of Wash Solution #2 (see Platelet Prep). The cells were incubated at room temperature (approximately 22° C.) for 5 minutes. Following this incubation 10 microliters of 7.35 mg/ml CaCl2 were added to the culture wells, 10 microliters of platelet poor plasma (diluted 1:32 with platelet Wash Solution #2) were added to culture wells for Conditions C and D and 250 microliters of washed platelets (3×10^8 /ml final concentration) were added to culture wells for Conditions B and D. Where appropriate, Wash Solution #2 was added to wells (Conditions A and C) so that all wells had the same final volume of solutions. The wells were incubated for one hour at 37° C. After the one hour incubation, the media containing any unattached tumor cells were removed by aspiration and then the wells were washed 2X with 1 ml of sodium phosphate buffer (PBS). The adhering cells were removed by trypsinization (as described above) and counts per wells determined using a gamma counter. Results were determined as total cpm plated per well.
The effect of BAY e 9736 on Walker 256 L-Pam tumor cell adhesion to plastic wells […] was determined by pretreating monodispersed Walker 256 L-Pam tumor cells with BAY e 9736 dissolved in DMSO prior to plating the cells. Except for the pretreatment, plastic adhesion studies were performed as previously described in the literature. A 8 mg sample of BAY e 9736 was dissolved in 1 ml of DMSO. Five microliters of the 8 mg/ml BAY e 9736 was added to each 1 ml of tumor cells.

SMILES: COCCOC(=O)C1=C(C)NC(C)=C(C(=O)OC(C)C)C1c1cccc([N+](=O)[O-])c1 (stereo not drawn) [BAY e 9736, 1,4-dihydro-2,6-dimethyl-4-(3' nitrophenyl)-pyridine-3-(beta-methyoxyethylester)-5-(isopropyl ester)]
- % of Control (mean number of pulmonary metastases) (B16a Tumor Cells; 0.1 mg/kg): 68 ± 14%
- % of Control (mean number of pulmonary metastases) (B16a Tumor Cells; 1.0 mg/kg): 45 ± 9%
- % of Control (mean number of pulmonary metastases) (B16a Tumor Cells; 2.5 mg/kg): 33 ± 22%
- % of Control (mean number of pulmonary metastases) (B16a Tumor Cells; 10.0 mg/kg): 28 ± 7%
- % of Control (mean number of pulmonary metastases) (B16a Tumor Cells; 80.0 mg/kg): 19 ± 6%
- reduction of spontaneous metastasis (in words) (B16a Tumor Cells): effective in decreasing the number of spontaneous metastasis as compared to the control mice
- reduction of spontaneous metastasis (in words) (B16a Tumor Cells; listed as nimodipine): significantly reduce spontaneous metastasis
- effect on tumor cell adhesion to plastic wells (in words) [1]: decreased the percent of cells adhering to the plastic wells; also recorded: significant in all groups tested
- effect on tumor cell adhesion to plastic wells (in words) ([1]; listed as nimodipine): decreases or inhibits the adhesion of tumor cells to plastic incubation wells
- inhibition at 40 µg/mL ([1]; A = tumor cells alone): 72%
- inhibition at 40 µg/mL ([1]; B = tumor cells + platelets): 50 ± 8.2%
- inhibition at 40 µg/mL ([1]; C = tumor cells + PPP): 44 ± 9.2%
- inhibition at 40 µg/mL ([1]; D = tumor cells + PPP + platelets): 40 ± 7.5%
